Measured values: publication PMC10824666 (Nature Cancer, 2023)
Where two headings read alike, the source gives them in different places.

Experiments:
Experiment in all cases: biochemical
Parameters in all cases: Eurofins DiscoverX kinase panel, competitive binding assay at 1 uM, percent of DMSO control
Conditions in all cases: competitive binding, percent of DMSO control
[1] = molecular target: c-MET (Homo sapiens, UniProt P08581)
How it was run: (§1)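 Single-point profiling at 1 µM compound in a competition-binding format against 96 kinases, read out as POC relative to control; n = 1.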

[2] = molecular target: T1, PLK4 (Homo sapiens, UniProt O00444)
T1 sequence (O00444 1-970): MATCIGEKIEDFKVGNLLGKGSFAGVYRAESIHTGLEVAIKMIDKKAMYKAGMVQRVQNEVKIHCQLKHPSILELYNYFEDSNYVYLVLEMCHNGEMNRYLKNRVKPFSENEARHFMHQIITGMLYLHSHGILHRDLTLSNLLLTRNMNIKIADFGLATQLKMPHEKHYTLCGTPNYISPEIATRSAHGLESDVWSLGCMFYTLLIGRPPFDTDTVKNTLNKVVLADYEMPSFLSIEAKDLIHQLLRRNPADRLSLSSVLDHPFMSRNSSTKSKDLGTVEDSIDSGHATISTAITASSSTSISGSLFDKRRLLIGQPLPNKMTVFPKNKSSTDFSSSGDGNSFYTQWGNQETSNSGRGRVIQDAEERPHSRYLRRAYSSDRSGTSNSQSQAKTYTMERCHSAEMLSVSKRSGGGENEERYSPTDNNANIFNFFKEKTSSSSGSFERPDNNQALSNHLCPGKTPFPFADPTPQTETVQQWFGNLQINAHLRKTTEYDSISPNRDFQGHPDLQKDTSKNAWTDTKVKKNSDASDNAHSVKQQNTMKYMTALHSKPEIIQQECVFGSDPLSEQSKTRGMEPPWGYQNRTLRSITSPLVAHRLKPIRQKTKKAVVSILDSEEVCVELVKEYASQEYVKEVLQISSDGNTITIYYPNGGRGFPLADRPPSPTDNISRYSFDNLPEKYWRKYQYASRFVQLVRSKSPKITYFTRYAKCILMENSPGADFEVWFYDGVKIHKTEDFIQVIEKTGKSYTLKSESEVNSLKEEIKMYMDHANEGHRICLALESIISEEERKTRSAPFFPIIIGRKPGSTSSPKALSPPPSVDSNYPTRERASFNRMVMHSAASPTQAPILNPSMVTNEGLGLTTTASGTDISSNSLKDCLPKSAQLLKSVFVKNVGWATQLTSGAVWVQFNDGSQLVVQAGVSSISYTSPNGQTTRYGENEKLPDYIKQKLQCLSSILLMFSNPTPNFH
How it was run: as §1

[3] = molecular target: T2, Abl_unphos (Homo sapiens, UniProt P00519)
T2 construct: gene ABL1; non-phosphorylated
How it was run: as §1

[4] = molecular target: Fyn (Homo sapiens, UniProt P06241)
How it was run: as §1

[5] = molecular target: T3, Brk (Homo sapiens, UniProt Q13882)
T3 construct: gene PTK6
How it was run: as §1

[6] = read-out: Kinome Profiling performed by Eurofins DiscoverX / AM-1882, 1.0 µM / POC
[7] = read-out: Kinome Profiling performed by Eurofins DiscoverX / AM-0277, 1.0 µM / POC
[8] = read-out: Kinome Profiling performed by Eurofins DiscoverX / AM-5308, 1.0 µM / POC

Sequence of Fyn (P06241 whole entry): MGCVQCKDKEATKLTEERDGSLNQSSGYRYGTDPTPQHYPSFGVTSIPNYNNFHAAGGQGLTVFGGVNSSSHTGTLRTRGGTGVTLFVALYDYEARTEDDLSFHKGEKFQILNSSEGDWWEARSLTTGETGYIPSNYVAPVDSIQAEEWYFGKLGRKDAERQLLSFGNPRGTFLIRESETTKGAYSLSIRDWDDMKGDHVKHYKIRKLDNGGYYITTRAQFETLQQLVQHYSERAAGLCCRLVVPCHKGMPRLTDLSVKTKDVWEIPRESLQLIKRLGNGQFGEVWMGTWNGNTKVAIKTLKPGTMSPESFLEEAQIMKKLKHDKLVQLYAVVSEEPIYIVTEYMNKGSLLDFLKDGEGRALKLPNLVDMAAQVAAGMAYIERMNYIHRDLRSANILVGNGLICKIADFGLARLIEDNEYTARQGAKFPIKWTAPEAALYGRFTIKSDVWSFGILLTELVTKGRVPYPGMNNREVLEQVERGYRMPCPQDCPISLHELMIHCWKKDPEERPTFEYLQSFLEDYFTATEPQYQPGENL
T3 sequence (Q13882 whole entry): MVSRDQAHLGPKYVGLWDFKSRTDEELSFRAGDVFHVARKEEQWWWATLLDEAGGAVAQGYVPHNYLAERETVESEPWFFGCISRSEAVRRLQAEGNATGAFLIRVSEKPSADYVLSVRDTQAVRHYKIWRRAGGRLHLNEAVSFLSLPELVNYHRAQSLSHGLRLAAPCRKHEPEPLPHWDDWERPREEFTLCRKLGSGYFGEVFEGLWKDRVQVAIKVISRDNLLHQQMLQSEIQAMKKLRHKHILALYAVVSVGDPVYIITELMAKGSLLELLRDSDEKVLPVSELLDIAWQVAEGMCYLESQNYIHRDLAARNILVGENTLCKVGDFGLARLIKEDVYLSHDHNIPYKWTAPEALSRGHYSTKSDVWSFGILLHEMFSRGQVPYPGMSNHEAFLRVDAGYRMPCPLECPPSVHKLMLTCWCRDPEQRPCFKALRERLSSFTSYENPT
T2 sequence (P00519 whole entry): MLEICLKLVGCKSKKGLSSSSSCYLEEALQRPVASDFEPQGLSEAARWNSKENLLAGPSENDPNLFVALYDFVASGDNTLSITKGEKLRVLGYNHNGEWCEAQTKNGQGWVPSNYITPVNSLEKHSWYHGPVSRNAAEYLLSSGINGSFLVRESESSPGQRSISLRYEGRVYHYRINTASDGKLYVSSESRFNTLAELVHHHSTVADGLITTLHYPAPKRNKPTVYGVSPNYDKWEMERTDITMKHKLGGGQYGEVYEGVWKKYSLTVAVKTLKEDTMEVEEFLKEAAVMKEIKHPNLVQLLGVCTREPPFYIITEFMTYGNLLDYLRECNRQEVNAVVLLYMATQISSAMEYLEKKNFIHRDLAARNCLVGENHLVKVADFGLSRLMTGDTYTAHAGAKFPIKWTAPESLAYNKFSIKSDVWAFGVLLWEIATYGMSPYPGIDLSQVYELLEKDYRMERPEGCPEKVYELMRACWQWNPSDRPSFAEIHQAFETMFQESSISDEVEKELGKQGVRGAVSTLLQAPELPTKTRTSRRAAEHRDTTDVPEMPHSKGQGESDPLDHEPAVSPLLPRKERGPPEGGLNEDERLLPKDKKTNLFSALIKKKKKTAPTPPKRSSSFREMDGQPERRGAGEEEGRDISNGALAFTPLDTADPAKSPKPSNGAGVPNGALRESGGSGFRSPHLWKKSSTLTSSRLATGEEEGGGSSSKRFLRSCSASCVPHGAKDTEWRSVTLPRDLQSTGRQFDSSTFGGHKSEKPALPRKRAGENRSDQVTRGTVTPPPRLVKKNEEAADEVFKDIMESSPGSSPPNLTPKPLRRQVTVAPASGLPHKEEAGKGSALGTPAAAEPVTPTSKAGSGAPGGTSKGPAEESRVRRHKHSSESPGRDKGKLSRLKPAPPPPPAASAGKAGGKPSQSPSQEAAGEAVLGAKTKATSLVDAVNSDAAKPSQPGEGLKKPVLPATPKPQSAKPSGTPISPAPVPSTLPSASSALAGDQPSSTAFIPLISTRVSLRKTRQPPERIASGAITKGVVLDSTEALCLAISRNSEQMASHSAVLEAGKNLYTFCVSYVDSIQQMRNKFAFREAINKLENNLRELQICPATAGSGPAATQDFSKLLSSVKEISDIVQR
Sequence of c-MET (P08581 whole entry): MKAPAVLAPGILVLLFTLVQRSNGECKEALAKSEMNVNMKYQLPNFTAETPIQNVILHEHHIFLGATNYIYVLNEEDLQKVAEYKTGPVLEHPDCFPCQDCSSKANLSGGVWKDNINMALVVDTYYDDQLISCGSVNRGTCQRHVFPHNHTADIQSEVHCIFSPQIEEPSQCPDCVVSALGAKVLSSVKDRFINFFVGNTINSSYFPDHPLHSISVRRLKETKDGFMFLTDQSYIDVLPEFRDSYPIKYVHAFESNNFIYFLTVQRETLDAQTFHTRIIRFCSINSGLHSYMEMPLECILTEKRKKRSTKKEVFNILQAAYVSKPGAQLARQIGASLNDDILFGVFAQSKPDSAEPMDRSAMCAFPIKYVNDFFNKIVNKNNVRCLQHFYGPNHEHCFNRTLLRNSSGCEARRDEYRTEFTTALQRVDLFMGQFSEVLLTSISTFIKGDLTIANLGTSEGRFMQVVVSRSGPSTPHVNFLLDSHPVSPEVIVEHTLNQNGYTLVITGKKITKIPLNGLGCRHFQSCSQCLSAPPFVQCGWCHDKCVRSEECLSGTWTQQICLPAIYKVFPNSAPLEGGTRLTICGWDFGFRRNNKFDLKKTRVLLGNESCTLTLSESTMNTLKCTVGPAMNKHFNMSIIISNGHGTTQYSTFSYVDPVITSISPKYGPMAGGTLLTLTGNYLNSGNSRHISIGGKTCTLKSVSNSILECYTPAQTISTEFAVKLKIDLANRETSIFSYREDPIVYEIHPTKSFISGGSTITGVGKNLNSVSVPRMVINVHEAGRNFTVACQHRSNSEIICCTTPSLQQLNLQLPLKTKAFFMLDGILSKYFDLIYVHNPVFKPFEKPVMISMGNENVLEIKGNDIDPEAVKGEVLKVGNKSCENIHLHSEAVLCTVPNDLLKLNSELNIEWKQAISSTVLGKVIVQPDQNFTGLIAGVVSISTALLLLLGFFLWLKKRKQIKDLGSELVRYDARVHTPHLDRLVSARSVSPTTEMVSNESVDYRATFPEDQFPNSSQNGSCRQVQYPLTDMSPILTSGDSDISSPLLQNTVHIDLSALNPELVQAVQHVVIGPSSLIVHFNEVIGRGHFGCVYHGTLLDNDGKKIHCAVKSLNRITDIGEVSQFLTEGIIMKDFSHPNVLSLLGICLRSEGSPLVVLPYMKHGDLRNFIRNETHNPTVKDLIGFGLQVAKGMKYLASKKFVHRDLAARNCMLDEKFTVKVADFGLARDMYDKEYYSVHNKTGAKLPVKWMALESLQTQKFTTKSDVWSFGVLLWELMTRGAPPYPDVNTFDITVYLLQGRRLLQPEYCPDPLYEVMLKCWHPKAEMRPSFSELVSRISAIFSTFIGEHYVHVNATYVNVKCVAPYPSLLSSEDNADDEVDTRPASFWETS

`CC(C)(C)NS(=O)(=O)c1cccc(NC(=O)c2ccc(S(=O)(=O)NC(C)(C)C)cc2N2CCC3(CC2)CC3)c1` [AM-1882] showed a remaining activity at 1 µM [1, 6] of 100%, a remaining activity at 1 µM [2, 6] of 93.5% and a remaining activity at 1 µM [3, 6] of 58%. The remaining activity at 1 µM [4, 6] was 85.5% and the remaining activity at 1 µM [5, 6] was 94%.

`CC(C)(CO)Nc1ccc(C(=O)Nc2cccc(S(=O)(=O)C3CCCC3)c2)c(N2CCC3(CC2)CC3)n1` [AM-0277] was tested, and the remaining activity at 1 µM [1, 7] was 89%, the remaining activity at 1 µM [2, 7] was 100% and the remaining activity at 1 µM [3, 7] was 100%. The remaining activity at 1 µM [4, 7] was 100% and the remaining activity at 1 µM [5, 7] was 95%.

Molecule `C[C@@H]1CN(c2cccc(NC(=O)c3ccc(NS(=O)(=O)CCO)cc3N3CCC4(CC3)CC4)n2)CCO1` [AM-5308] has a remaining activity at 1 µM [1, 8] of 92%, a remaining activity at 1 µM [2, 8] of 87.5% and a remaining activity at 1 µM [3, 8] of 93%. For the same molecule, the remaining activity at 1 µM [4, 8] was 92% and the remaining activity at 1 µM [5, 8] was 93.5%.
